Legend:
[1] = system: Ramos-2G6-4C10 (Burkitt's Lymphoma); assay: Bliss excess, mean over the matrix (fraction); higher = more synergy
In short: (§1)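 Bliss excess equals the observed combination effect minus the expected value EA + EB − EA·EB, where EA and EB are the effects of each agent alone. Combination Emax is the second-highest inhibition within the matrix. Inhibition was scaled from CellTiter-Glo 2.0 luminescence, with 0 set by vehicle wells and 1 by blank wells, after 72 hours of two-drug dosing of cells plated in 1536-well plates.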

[2] = system: MDA-MB-361 (Breast Carcinoma); assay: as above
In short: as §1

42-MG-BA (Glioblastoma) = assay: as above
In short: as §1

[3] = system: HCC1806 (Breast Carcinoma); assay: as above
In short: as §1

[4] = system: DEL (T-Cell Non-Hodgkin's Lymphoma); assay: as above
In short: as §1

NB10 (Neuroblastoma) = assay: as above
In short: as §1

[5] = system: SNU-5 (Gastric Carcinoma); assay: as above
In short: as §1

[6] = system: HT-1376 (Bladder Carcinoma); assay: as above
In short: as §1

[7] = system: B-CPAP (Thyroid Gland Carcinoma); assay: as above
In short: as §1

[8] = system: UM-UC-3 (Bladder Carcinoma); assay: as above
In short: as §1

[9] = system: Hs-578-T (Breast Carcinoma); assay: as above
In short: as §1

[10] = system: COLO-205 (Colorectal Carcinoma); assay: as above
In short: as §1

[11] = system: KURAMOCHI (Ovarian Carcinoma); assay: as above
In short: as §1

[12] = system: HuP-T4 (Pancreatic Carcinoma); assay: as above
In short: as §1

ES4 (Ewing's Sarcoma) = assay: combination Emax (second highest fraction inhibited in the dose matrix, 72 h); higher = more inhibition; extreme values may be limits of the assay
In short: as §1

[13] = system: LB831-BLC (Bladder Carcinoma); assay: as above
In short: as §1

[14] = system: NCI-H82 (Small Cell Lung Carcinoma); assay: as above
In short: as §1

[15] = system: CAL-148 (Breast Carcinoma); assay: as above
In short: as §1

[16] = system: Hs-578-T (Breast Carcinoma); assay: as above
In short: as §1

[17] = system: KP-1N (Pancreatic Carcinoma); assay: as above
In short: as §1

SMILES | Bliss excess [1] | Bliss excess [2] | Bliss excess (42-MG-BA (Glioblastoma)) | Bliss excess [3] | Bliss excess [4] | Bliss excess (NB10 (Neuroblastoma)) | Bliss excess [5] | Bliss excess [6] | Bliss excess [7] | Bliss excess [8] | Bliss excess [9] | Bliss excess [10] | Bliss excess [11] | Bliss excess [12] | combination Emax (ES4 (Ewing's Sarcoma)) | combination Emax [13] | combination Emax [14] | combination Emax [15] | combination Emax [16] | combination Emax [17]
CN(CCO)CC[C@H](CSc1ccccc1)Nc1ccc(S(=O)(=O)NC(=O)c2ccc(N3CCC([C@@H](O)c4ccccc4-c4ccc(Cl)cc4)CC3)cc2)cc1S(=O)(=O)C(F)(F)F [AZD4320] + C1CN(CCC1(C(=O)N[C@@H](CCO)C2=CC=C(C=C2)Cl)N)C3=NC=NC4=C3C=CN4 [Capivasertib] (first compound max 1 µM, 7x7, partner max 3 µM) | 0.038 | -0.0442 | -0.0479 | -0.0078 | -0.0028 | -0.0288 | -0.0453 | -0.0959 | -0.0377 | -0.0228 | -0.0198 | -0.0031 | -0.0393 | -0.0353 | 0.564 | 0.338 | 0.255 | 1 | 0.639 | 0.0744
CN(CCO)CC[C@H](CSc1ccccc1)Nc1ccc(S(=O)(=O)NC(=O)c2ccc(N3CCC([C@@H](O)c4ccccc4-c4ccc(Cl)cc4)CC3)cc2)cc1S(=O)(=O)C(F)(F)F [AZD4320] + C=CCn1c(=O)c2cnc(Nc3ccc(N4CCN(C)CC4)cc3)nc2n1-c1cccc(C(C)(C)O)n1 [AZD1775] (first compound max 1 µM, partner max 1 µM) | 0.0808 | -0.034 | -0.027 | 0.0043 | 0.0464 | 0.0304 | 0.0426 | -0.0588 | 0.0808 | -0.0064 | 0.022 | 0.0243 | 0.0419 | -0.0368 | 1 | 0.634 | 0.932 | 0.994 | 0.928 | 0.398
CN(CCO)CC[C@H](CSc1ccccc1)Nc1ccc(S(=O)(=O)NC(=O)c2ccc(N3CCC([C@@H](O)c4ccccc4-c4ccc(Cl)cc4)CC3)cc2)cc1S(=O)(=O)C(F)(F)F [AZD4320] + CCN(CCO)CCCOc1ccc2c(Nc3cc(CC(=O)Nc4cccc(F)c4)[nH]n3)ncnc2c1 [AZD2811] (first compound max 1 µM, 7x7, partner max 1 µM) | 0.18 | 0.122 | 0.15 | -0.0127 | -0.124 | -0.0097 | -0.0115 | 0.026 | 0.0126 | 0.0325 | 0.183 | -0.0154 | 0.0224 | -0.0427 | 0.631 | 0.526 | 0.512 | 1 | 0.918 | 0.0993
CN(CCO)CC[C@H](CSc1ccccc1)Nc1ccc(S(=O)(=O)NC(=O)c2ccc(N3CCC([C@@H](O)c4ccccc4-c4ccc(Cl)cc4)CC3)cc2)cc1S(=O)(=O)C(F)(F)F [AZD4320] + CN(C)CCCOc1ccc(-c2ccc3ncc4c(c3c2)n(C2CCOCC2)c(=O)n4C)cn1 [AZD0156] (first compound max 1 µM, 7x7, partner max 1 µM) | 0.026 | -0.0589 | -0.0225 | 0.0142 | 0.0265 | -0.0056 | 0.0286 | -0.03 | -0.0065 | -0.0219 | -0.0178 | -0.054 | -0.0367 | -0.0268 | 0.655 | 0.286 | 0.282 | 0.504 | 0.531 | 0.194
CN(CCO)CC[C@H](CSc1ccccc1)Nc1ccc(S(=O)(=O)NC(=O)c2ccc(N3CCC([C@@H](O)c4ccccc4-c4ccc(Cl)cc4)CC3)cc2)cc1S(=O)(=O)C(F)(F)F [AZD4320] + C[C@@H]1COCCN1C2=NC(=NC(=C2)C3(CC3)[S@](=N)(=O)C)C4=C5C=CNC5=NC=C4 [AZD6738] (first compound max 1 µM, 7x7, partner max 10 µM) | -0.0342 | -0.0402 | 0.0154 | 0.0208 | 0.0294 | -0.0515 | 0.0061 | 0.0078 | -0.0422 | 0.0368 | -0.136 | -0.0575 | 0.0158 | 0.0013 | 1 | 0.381 | 0.932 | 0.978 | 0.991 | 0.269
CN(CCO)CC[C@H](CSc1ccccc1)Nc1ccc(S(=O)(=O)NC(=O)c2ccc(N3CCC([C@@H](O)c4ccccc4-c4ccc(Cl)cc4)CC3)cc2)cc1S(=O)(=O)C(F)(F)F [AZD4320] + C[C@@H](Nc1cc(F)cc(F)c1)c1cc(C(=O)N(C)C)cc2c(=O)cc(N3CCOCC3)oc12 [AZD8186] (first compound max 1 µM, 7x7, partner max 3 µM) | 0.175 | 0.0094 | 0.0453 | 0.0033 | 0.0784 | -0.0357 | 0.0726 | -0.0224 | 0.0064 | 0.0327 | -0.0314 | -0.0302 | 0.0147 | 0.0664 | 0.849 | 0.532 | 0.231 | 0.996 | 0.874 | 0.303
CN(CCO)CC[C@H](CSc1ccccc1)Nc1ccc(S(=O)(=O)NC(=O)c2ccc(N3CCC([C@@H](O)c4ccccc4-c4ccc(Cl)cc4)CC3)cc2)cc1S(=O)(=O)C(F)(F)F [AZD4320] + Cc1cc2ncnn2cc1Nc1ncc2c(n1)n(C1CCOCC1)c(=O)n2C [AZD7648] (first compound max 1 µM, 7x7, partner max 10 µM) | 0.0379 | 0.0056 | -0.0244 | -0.058 | -0.0346 | -0.0281 | -0.0151 | -0.17 | -0.0275 | -0.0234 | 0.0165 | -0.0132 | -0.0239 | -0.0439 | 0.619 | 0.214 | 0.299 | 0.744 | 0.63 | 0.0993
CN(CCO)CC[C@H](CSc1ccccc1)Nc1ccc(S(=O)(=O)NC(=O)c2ccc(N3CCC([C@@H](O)c4ccccc4-c4ccc(Cl)cc4)CC3)cc2)cc1S(=O)(=O)C(F)(F)F [AZD4320] + Cn1cnc2c(F)c(Nc3ccc(Br)cc3Cl)c(C(=O)NOCCO)cc21 [Selumetinib] (first compound max 1 µM, 7x7, partner max 3 µM) | 0.138 | 0.0835 | 0.0167 | 0.0605 | 0.103 | 0 | 0.118 | 0.0297 | 0.0228 | -0.0058 | -0.0492 | 0.026 | 0.0636 | 0.0393 | 0.823 | 0.373 | 0.265 | 0.996 | 0.812 | 0.196
COc1nnc2ccc(N3CCC(c4ccc(OCCN5CCN(C)C(=O)[C@H]5C)cc4)CC3)nn12 [AZD5153] + C=CCn1c(=O)c2cnc(Nc3ccc(N4CCN(C)CC4)cc3)nc2n1-c1cccc(C(C)(C)O)n1 [AZD1775] (first compound max 1 µM, partner max 1 µM) | -0.0657 | -0.136 | -0.0577 | -0.0704 | -0.0679 | -0.0727 | -0.0759 | 0.0053 | -0.0803 | -0.0413 | -0.0661 | -0.0529 | -0.0373 | -0.0435 | 0.758 | 0.668 | 0.914 | 0.907 | 0.822 | 0.655
COc1nnc2ccc(N3CCC(c4ccc(OCCN5CCN(C)C(=O)[C@H]5C)cc4)CC3)nn12 [AZD5153] + CC1(C)CCC(CN2CCN(c3ccc(C(=O)NS(=O)(=O)c4ccc(NCC5CCOCC5)c([N+](=O)[O-])c4)c(Oc4cnc5[nH]ccc5c4)c3)CC2)=C(c2ccc(Cl)cc2)C1 [Venetoclax] (first compound max 1 µM, 7x7, partner max 1 µM) | -0.0041 | -0.0257 | -0.0391 | -0.0513 | -0.0559 | -0.0566 | -0.0754 | -0.0305 | -0.0858 | -0.043 | -0.0614 | -0.0745 | -0.0471 | -0.0457 | 0.616 | 0.499 | 0.467 | 0.557 | 0.761 | 0.481
COc1nnc2ccc(N3CCC(c4ccc(OCCN5CCN(C)C(=O)[C@H]5C)cc4)CC3)nn12 [AZD5153] + CCN(CCO)CCCOc1ccc2c(Nc3cc(CC(=O)Nc4cccc(F)c4)[nH]n3)ncnc2c1 [AZD2811] (first compound max 1 µM, 7x7, partner max 1 µM) | -0.0004 | -0.0448 | -0.0476 | -0.042 | -0.0462 | -0.0289 | -0.0501 | -0.0381 | -0.0367 | 0.0346 | -0.0345 | -0.0595 | -0.0149 | -0.0595 | 0.685 | 0.546 | 0.481 | 0.927 | 0.771 | 0.542
COc1nnc2ccc(N3CCC(c4ccc(OCCN5CCN(C)C(=O)[C@H]5C)cc4)CC3)nn12 [AZD5153] + C[C@@H]1COCCN1C2=NC(=NC(=C2)C3(CC3)[S@](=N)(=O)C)C4=C5C=CNC5=NC=C4 [AZD6738] (first compound max 1 µM, 7x7, partner max 10 µM) | -0.0534 | -0.0172 | -0.0155 | 0.0113 | 0.0007 | 0.0214 | -0.0128 | -0.0006 | 0.0219 | 0.0647 | -0.0231 | -0.0115 | 0.0157 | -0.028 | 0.942 | 0.648 | 0.878 | 0.912 | 0.8 | 0.69
COc1nnc2ccc(N3CCC(c4ccc(OCCN5CCN(C)C(=O)[C@H]5C)cc4)CC3)nn12 [AZD5153] + Cc1c2c(nn1C)CSCc1cc(n(C)n1)CSc1cc(c3ccccc3c1)OCCCc1c(C(=O)O)n(C)c3c-2c(Cl)ccc13 [AZD5991] (first compound max 1 µM, 7x7, partner max 1 µM) | 0.0407 | -0.0406 | 0.0576 | -0.0137 | -0.0475 | -0.0446 | -0.0069 | -0.0135 | -0.0224 | 0.0031 | -0.0338 | -0.0303 | 0.0332 | -0.0461 | 0.63 | 0.587 | 0.968 | 1 | 0.896 | 0.582
